Assays:
[1] = tested on: SMMC-7721; assay: Antiproliferative activity against human SMMC7721 cells assessed as reduction in cell growth incubated for 72 hrs by CCK-8 assay; assay type: functional, cell-based; settings: SMMC-7721, 72 h
[2] = tested on: A-375; assay: Antiproliferative activity against human A375 cells assessed as reduction in cell growth at 8 uM incubated for 72 hrs by CCK-8 assay relative to control; assay type: functional; settings: A-375, 72 h
[3] = tested on: A-375; assay: Antiproliferative activity against human A375 cells assessed as reduction in cell growth at 2 uM incubated for 72 hrs by CCK-8 assay relative to control; assay type: functional; settings: A-375, 72 h
[4] = tested on: HeLa; assay: Antiproliferative activity against human HeLa cells assessed as reduction in cell growth at 8 uM incubated for 72 hrs by CCK-8 assay relative to control; assay type: functional
[5] = tested on: HeLa; assay: Antiproliferative activity against human HeLa cells assessed as reduction in cell growth at 2 uM incubated for 72 hrs by CCK-8 assay relative to control; assay type: functional
[6] = tested on: A549; assay: Antiproliferative activity against human A549 cells assessed as reduction in cell growth at 8 uM incubated for 72 hrs by CCK-8 assay relative to control; assay type: functional; settings: A549, 72 h
[7] = tested on: A549; assay: Antiproliferative activity against human A549 cells assessed as reduction in cell growth at 2 uM incubated for 72 hrs by CCK-8 assay relative to control; assay type: functional; settings: A549, 72 h
[8] = tested on: HCT-116; assay: Antiproliferative activity against human HCT116 cells assessed as reduction in cell growth at 8 uM incubated for 72 hrs by CCK-8 assay relative to control; assay type: functional; settings: HCT-116, 72 h
[9] = tested on: HCT-116; assay: Antiproliferative activity against human HCT116 cells assessed as reduction in cell growth at 2 uM incubated for 72 hrs by CCK-8 assay relative to control; assay type: functional; settings: HCT-116, 72 h
[10] = tested on: SMMC-7721; assay: Antiproliferative activity against human SMMC7721 cells assessed as reduction in cell growth at 8 uM incubated for 72 hrs by CCK-8 assay relative to control; assay type: functional; settings: SMMC-7721, 72 h
[11] = tested on: SMMC-7721; assay: Antiproliferative activity against human SMMC7721 cells assessed as reduction in cell growth at 2 uM incubated for 72 hrs by CCK-8 assay relative to control; assay type: functional; settings: SMMC-7721, 72 h

`Cc1cccc2nc(SCc3ccc(/C=C/C(=O)Nc4ccccc4N)cc3)n(C)c(=O)c12` was tested. Which IC50 [1] did it give?
The IC50 was 3.56 µM.

And the inhibition at 8 µM [2]?
The inhibition at 8 µM was 32.4%.

And the inhibition at 2 µM [3]?
Its inhibition at 2 µM is 24.4%.

And the inhibition at 8 µM [4]?
Its inhibition at 8 µM is 51.8%.

What about the inhibition at 2 µM [5] of the same compound?
The inhibition at 2 µM was 44.3%.

And the inhibition at 8 µM [6]?
The inhibition at 8 µM was 46%.

And the inhibition at 2 µM [7]?
Its inhibition at 2 µM is 39.4%.

And the inhibition at 8 µM [8]?
The inhibition at 8 µM was 11.7%.

And the inhibition at 2 µM [9]?
Its inhibition at 2 µM is 8.9%.

What about the inhibition at 8 µM [10] of the same compound?
Its inhibition at 8 µM is 52.3%.

And the inhibition at 2 µM [11]?
The inhibition at 2 µM was 50.5%.

`Cn1c(SCc2ccc(/C=C/C(=O)Nc3ccccc3N)cc2)nc2cc(Br)ccc2c1=O` was tested. Which inhibition at 8 µM [2] did it give?
The inhibition at 8 µM was 6.3%.

What about the inhibition at 2 µM [3] of the same compound?
The inhibition at 2 µM was 4%.

What about the inhibition at 8 µM [4] of the same compound?
Its inhibition at 8 µM is 30.3%.

What about the inhibition at 2 µM [5] of the same compound?
Its inhibition at 2 µM is 17.7%.

And the inhibition at 8 µM [6]?
Its inhibition at 8 µM is 14%.

What about the inhibition at 2 µM [7] of the same compound?
The inhibition at 2 µM was 1.9%.

And the inhibition at 8 µM [8]?
The inhibition at 8 µM was 19.4%.

What about the inhibition at 2 µM [9] of the same compound?
Its inhibition at 2 µM is 9%.

What about the inhibition at 8 µM [10] of the same compound?
Its inhibition at 8 µM is 15.2%.

What about the inhibition at 2 µM [11] of the same compound?
The inhibition at 2 µM was 13.2%.

How did the inhibition at 8 µM [2] turn out when `CCCCn1c(SCc2ccc(C(=O)Nc3ccccc3N)cc2)nc2cc(Br)ccc2c1=O` was run?
The inhibition at 8 µM was 37.7%.

What about the inhibition at 2 µM [3] of the same compound?
The inhibition at 2 µM was 8.5%.

What about the inhibition at 8 µM [4] of the same compound?
The inhibition at 8 µM was 34.7%.

And the inhibition at 2 µM [5]?
Its inhibition at 2 µM is 21.3%.

And the inhibition at 8 µM [6]?
Its inhibition at 8 µM is 39.7%.

And the inhibition at 2 µM [7]?
Its inhibition at 2 µM is 28.1%.

What about the inhibition at 8 µM [8] of the same compound?
Its inhibition at 8 µM is 51.9%.

And the inhibition at 2 µM [9]?
Its inhibition at 2 µM is 14.1%.

And the inhibition at 8 µM [10]?
The inhibition at 8 µM was 26.4%.

What about the inhibition at 2 µM [11] of the same compound?
Its inhibition at 2 µM is 18.2%.

What does the source list for `COc1ccc2c(=O)n(-c3cccc(Cl)c3)c(SCc3ccc(/C=C/C(=O)Nc4ccccc4N)cc3)nc2c1`?
inhibition at 8 µM [2]: 8.9%; inhibition at 2 µM [3]: 5.4%; inhibition at 8 µM [4]: 24.9%; inhibition at 2 µM [5]: 16.3%; inhibition at 8 µM [6]: 37.2%; inhibition at 2 µM [7]: 4.1%; inhibition at 8 µM [8]: 12.7%; inhibition at 2 µM [9]: 2.1%; inhibition at 8 µM [10]: 5.1%; inhibition at 2 µM [11]: 0.7%

Which results are given for `Cc1ccc2nc(SCc3ccc(/C=C/C(=O)Nc4ccccc4N)cc3)n(C)c(=O)c2c1`?
inhibition at 8 µM [2]: 22.8%; inhibition at 2 µM [3]: 9%; inhibition at 8 µM [4]: 55.3%; inhibition at 2 µM [5]: 25.5%; inhibition at 8 µM [6]: 38.7%; inhibition at 2 µM [7]: 26.7%; inhibition at 8 µM [8]: 18.6%; inhibition at 2 µM [9]: 7.2%; inhibition at 8 µM [10]: 57.6%; inhibition at 2 µM [11]: 34.1%

Which inhibition at 8 µM [2] does the source give for `Cc1cccc2c(=O)n(C)c(SCc3ccc(/C=C/C(=O)Nc4ccccc4N)cc3)nc12` here?
The inhibition at 8 µM was 13.7%.

And the inhibition at 2 µM [3]?
Its inhibition at 2 µM is 9.3%.

What about the inhibition at 8 µM [4] of the same compound?
The inhibition at 8 µM was 56.6%.

And the inhibition at 2 µM [5]?
Its inhibition at 2 µM is 31.6%.

And the inhibition at 8 µM [6]?
Its inhibition at 8 µM is 43.8%.

And the inhibition at 2 µM [7]?
Its inhibition at 2 µM is 34%.

What about the inhibition at 8 µM [8] of the same compound?
The inhibition at 8 µM was 5.8%.

What about the inhibition at 2 µM [9] of the same compound?
The inhibition at 2 µM was 4.5%.

And the inhibition at 8 µM [10]?
Its inhibition at 8 µM is 36.4%.

What about the inhibition at 2 µM [11] of the same compound?
Its inhibition at 2 µM is 26.3%.

With `CCCCn1c(SCc2ccc(/C=C/C(=O)Nc3ccccc3N)cc2)nc2cc(F)ccc2c1=O` as the compound, how does the inhibition at 8 µM [2] read?
Its inhibition at 8 µM is 15.8%.

What about the inhibition at 2 µM [3] of the same compound?
The inhibition at 2 µM was 1.9%.

What about the inhibition at 8 µM [4] of the same compound?
Its inhibition at 8 µM is 26.2%.

And the inhibition at 2 µM [5]?
Its inhibition at 2 µM is 11.6%.

And the inhibition at 8 µM [6]?
Its inhibition at 8 µM is 13.5%.

And the inhibition at 2 µM [7]?
The inhibition at 2 µM was 4.6%.

And the inhibition at 8 µM [8]?
Its inhibition at 8 µM is 33.2%.

What about the inhibition at 2 µM [9] of the same compound?
The inhibition at 2 µM was 12%.

What about the inhibition at 8 µM [10] of the same compound?
Its inhibition at 8 µM is 29%.

What about the inhibition at 2 µM [11] of the same compound?
Its inhibition at 2 µM is 10.2%.

Which inhibition at 8 µM [2] does the source give for `CCn1c(SCc2ccc(C(=O)Nc3ccccc3N)cc2)nc2cc(Cl)ccc2c1=O` here?
Its inhibition at 8 µM is 49.9%.

And the inhibition at 2 µM [3]?
Its inhibition at 2 µM is 12.7%.

What about the inhibition at 8 µM [4] of the same compound?
Its inhibition at 8 µM is 43.4%.

What about the inhibition at 2 µM [5] of the same compound?
The inhibition at 2 µM was 39.1%.

What about the inhibition at 8 µM [6] of the same compound?
Its inhibition at 8 µM is 13.7%.

And the inhibition at 2 µM [7]?
The inhibition at 2 µM was 3.6%.

What about the inhibition at 8 µM [8] of the same compound?
The inhibition at 8 µM was 7.4%.

And the inhibition at 2 µM [9]?
Its inhibition at 2 µM is 7.3%.

And the inhibition at 8 µM [10]?
Its inhibition at 8 µM is 34.2%.

And the inhibition at 2 µM [11]?
The inhibition at 2 µM was 18.4%.

With `Cn1c(SCc2ccc(/C=C/C(=O)Nc3ccccc3N)cc2)nc2cc(F)ccc2c1=O` as the compound, how does the inhibition at 8 µM [2] read?
Its inhibition at 8 µM is 6.4%.

And the inhibition at 2 µM [3]?
The inhibition at 2 µM was 1.6%.

And the inhibition at 8 µM [4]?
Its inhibition at 8 µM is 21.2%.

What about the inhibition at 2 µM [5] of the same compound?
The inhibition at 2 µM was 12.7%.

What about the inhibition at 8 µM [6] of the same compound?
The inhibition at 8 µM was 22.9%.

And the inhibition at 2 µM [7]?
The inhibition at 2 µM was 2.9%.

What about the inhibition at 8 µM [8] of the same compound?
Its inhibition at 8 µM is 3.3%.

What about the inhibition at 2 µM [9] of the same compound?
The inhibition at 2 µM was 0.9%.

And the inhibition at 8 µM [10]?
The inhibition at 8 µM was 29.5%.

What about the inhibition at 2 µM [11] of the same compound?
The inhibition at 2 µM was 12.3%.

Which inhibition at 8 µM [2] does the source give for `CCn1c(SCc2ccc(/C=C/C(=O)Nc3ccccc3N)cc2)nc2cc(Cl)ccc2c1=O` here?
The inhibition at 8 µM was 22.9%.

What about the inhibition at 2 µM [3] of the same compound?
The inhibition at 2 µM was 12%.

What about the inhibition at 8 µM [4] of the same compound?
The inhibition at 8 µM was 21.8%.

And the inhibition at 2 µM [5]?
The inhibition at 2 µM was 8.7%.

What about the inhibition at 8 µM [6] of the same compound?
The inhibition at 8 µM was 45.7%.

And the inhibition at 2 µM [7]?
Its inhibition at 2 µM is 31.6%.

And the inhibition at 8 µM [8]?
Its inhibition at 8 µM is 28.4%.

What about the inhibition at 2 µM [9] of the same compound?
Its inhibition at 2 µM is 12.1%.

And the inhibition at 8 µM [10]?
The inhibition at 8 µM was 28.4%.

What about the inhibition at 2 µM [11] of the same compound?
The inhibition at 2 µM was 12.1%.

How did the inhibition at 8 µM [2] turn out when `COc1ccc2c(=O)n(-c3cccc(Cl)c3)c(SCC(=O)Nc3ccccc3N)nc2c1` was run?
Its inhibition at 8 µM is 43.3%.

And the inhibition at 2 µM [3]?
Its inhibition at 2 µM is 3.2%.

And the inhibition at 8 µM [4]?
The inhibition at 8 µM was 38.5%.

What about the inhibition at 2 µM [5] of the same compound?
The inhibition at 2 µM was 27.8%.

And the inhibition at 8 µM [6]?
Its inhibition at 8 µM is 28.2%.

And the inhibition at 2 µM [7]?
Its inhibition at 2 µM is 13%.

What about the inhibition at 8 µM [8] of the same compound?
The inhibition at 8 µM was 6.6%.

What about the inhibition at 2 µM [9] of the same compound?
Its inhibition at 2 µM is 3.9%.

What about the inhibition at 8 µM [10] of the same compound?
Its inhibition at 8 µM is 38.1%.

What about the inhibition at 2 µM [11] of the same compound?
The inhibition at 2 µM was 24.6%.
